Source: patent US12721835B2, “Anticoccidial composition comprising violacein, and use thereof” (CJ CHEILJEDANG CORPORATION, priority 2020, dated 2026)

Columns and labels:
Eimeria maxima = assay: Protozoan (sporozoite) direct killing effect; assay type: cell-based; details: tested 1 to 500 ppm, vs PBS control
Experimental: (§1) In the present example, protozoan (sporozoite) direct killing ability evaluation was conducted against 3 representative Eimeria kinds known to be infected in most farms (E. tenella, E. acervulina, E. maxima).
(§2) A certain amount of oocysts of each coccidial protozoan was put in a tube containing glass beads and pulverized, and then to remove the crushed oocyst cell wall and other debris, internal sporocysts were purified using the percoll density gradient, and washed with PBS solution. A reagent comprising sodium taurocholic acid (Sigma aldrich, USA) and trypsin (Gibco, USA), respectively, was treated to sporocysts of Eimeria tenella, Eimeria acervulina and Eimeria maxima for excystation of the internal sporozoites, and they were incubated, and then they were washed with PBS solution once and the protozoa were obtained.
(§3) After reacting the violacein and anticoccidial agents, salinomycin, diclazuril and gallic acid (hereinafter, material) with 3 kinds of Eimeria protozoa at various concentrations of 1 to 500 ppm, respectively, only alive protozoa (sporozoites) were counted through microscopic observation. […]

Eimeria tenella [1] = assay: Protozoan (sporozoite) direct killing effect; assay type: cell-based; details: tested 1 to 500 ppm, vs PBS control
Experimental: as §1, §2, §3

Eimeria acervulina = assay: Protozoan (sporozoite) direct killing effect; assay type: cell-based; details: tested 1 to 500 ppm, vs PBS control
Experimental: as §1, §2, §3

Eimeria tenella [2] = assay: Cell invasion inhibition of protozoa in MDBK cells (ITS-1 PCR); assay type: cell-based; details: MDBK cells, 41° C. 24 hours, read-out: Cell invasion inhibitory effect of protozoa (%)
Experimental: (§4) In the present example, using MDBK cell line which is a representative animal cell known to cause Eimeria infection and propagation, the inhibition ability of intracellular protozoan invasion and intracellular protozoal propagation of the violacein was investigated.
100,000 MDBK cells (purchased from ATCC) were aliquoted in a 24-well plate, and then incubated at a temperature of 37° C. for 12 hours. The protozoan of Eimeria tenella was obtained similar to the method of Example 3 above. 200,000 protozoa per one well were added to wells in which cells were aliquoted, and each material (violacein and anticoccidial agents, salinomycin, diclazuril and gallic acid) was treated to the cells by concentration, and cultured at a temperature of 41° C. for 24 hours. A negative control group is a MDBK cell infected by protozoa of Eimeria tenella, and a positive control group means a group in which salinomycin, diclazuril or gallic acid solution was incubated with the Eimeria tenella protozoan. […] After removing the cells and protozoa inside the cells through pipetting, DNA was extracted from the cells, and PCR was performed using E. tenella ITS-1 (Internal transcribed spacer-1) gene-specific primers. The sequences of the used primers were described in Table 9 below.
Ct values before/after washing for each material were compared and corrected with the ΔCt value of the negative control group to calculate the cell invasion inhibition rate (%) of the protozoa through treatment of each material, and the result was shown in FIG. 3 and Table 10 below.

Eimeria tenella [3] = assay: Intracellular protozoan propagation inhibition in MDBK cells (ITS-1 PCR); assay type: cell-based; details: MDBK cells, treated after invasion, 24 hours, read-out: Intracellular protozoan propagation inhibitory effect (%)
Experimental: as §4
100,000 MDBK cells (purchased from ATCC) were aliquoted in a 24-well plate, and then incubated at a temperature of 37° C. for 12 hours. The protozoan of Eimeria tenella was obtained similar to the method of Example 3 above. 200,000 protozoa per one well were added to wells in which cells were aliquoted, and cultured at a temperature of 41° C. for 24 hours, and then the cells were washed using PBS solution twice to remove protozoa which were not attached to the cells. Each material (violacein and anticoccidial agents, salinomycin, diclazuril and gallic acid) was treated to the cells by concentration, and further cultured at a temperature of 41° C. for 24 hours. A negative control group is a MDBK cell infected by protozoa, and a positive control group means a group in which salinomycin and diclazuril solution was incubated with the Eimeria tenella protozoan. After removing the cells and protozoa inside the cells through pipetting, DNA was extracted from the cells, and PCR was performed using E. tenella ITS-1 (Internal transcribed spacer-1) gene-specific primers. The sequences of the used primers were described in Table 9 above.
The intracellular protozoan propagation inhibition rate (%) through treatment of the material was calculated by comparing Ct values in the material treatment groups compared to the negative control group, and the result was shown in FIG. 3 and Table 10.

Eimeria tenella [4] = assay: In vivo anticoccidial activity upon single inoculation (broilers, formulated feed); parameters: key to ACI: ACI out of 200 = survival% + RWG% − lesion×10 − oocyst index; details: Eimeria tenella infection, feed 1 ppm
Experimental: An in vivo anticoccidial efficacy evaluation test was performed in an animal experiment facility in Gyeongsangnam-do, South Korea. One-day-old female Ross broilers were individually weighed and randomly divided into groups to use in an experiment. Matters and conditions for experimental design were described in Table 2.
A breeding farm was managed according to the Korean poultry breeding management guidelines. Cages and the breeding farm were cleaned and disinfected before starting the test. The temperature of […] and the humidity of 40 to 50% of the breeding farm were maintained, and it was continuously monitored.
For the feed, Korea Feed Al-choi product was used, and each material (diclazuril (Yuhan Corporation YUHAN DICLA product), salinomycin (Cheil Bio Cheilsalino-60 product), violacein (CJ Cheiljedang)) was added to the feed, respectively, at a concentration described in Table 3 below to be self-mixed. Antibiotics and supplements were not used in general feed and mixed feed, and no anticoccidial agent other than each material was added. Broilers were fed ad libitum throughout the experiment period. After putting 15 1-day-age broilers in cages randomly placed for each of the control group or test group and breeding, general feed (Al-choi product) was fed for 7 days, and then the mixed feed prepared above was ingested by dividing by control group or test group. The non-infected negative control group used 1cage, and the infected negative control group and experimental group used 2cage to progress the experiment.
The feed formulation administered to the control group (negative control group or positive control group) and test group and whether coccidiosis was induced by Eimeria tenella were described in Table 3 below.
14-day-old broilers were orally inoculated with 10,000 oocysts (90% sporulated Eimeria tenella oocysts) per individual to induce coccidiosis.
The anticoccidial efficacy by test group designed in Example 1-2 above was shown as an anticoccidial index (ACI), and the anticoccidial index was calculated by Equation 2 below. The ACI score is out of 200 points, and the higher the ACI score, the more excellent the anticoccidial ability, and when it is 120 points or more to less than 140 points, it is determined that it is effective as an anticoccidial material, and when it is 140 points or more to less than 160 points, it is determined that it is excellent as an anticoccidial material, and when it is 160 points or more, it is determined that the anticoccidial effect is very excellent (Luis Miguel De Pablos et al., Anticoccidial activity of maslinic acid against infection with Eimeria tenella in chickens, Parasitol Res, 2010). Anticoccidial index (ACI)=(survival rate after challenge inoculation(%))+(daily weight gain compared to negative control group (RWG,%))−(lesion score×10)−(fecal oocyst excretion amount index) (Equation 2) • 1) Survival rate: the number of dead individuals was recorded daily, and post mortem autopsy was performed to determine a cause of mortality, and the number of individuals who died due to causes other than coccidiosis was excluded. The survival rate (%) up to the 8th day after challenge inoculation was used for anticoccidial index calculation. The measured survival rate was described in Table 4 below. • 2) Daily weight gain: body weight was measured for each cage before challenge inoculation with a protozoan into an individual and at the 7th day after challenge inoculation, and the difference was divided by the number of days to calculate the daily weight gain (ADG, g/d). ‘Daily weight gain compared to the negative control group (RWG, %)’ which was calculated by dividing the daily weight gain (ADG, average daily gain; g/d) of each experimental group by the weight gain (ADG, g/d) of the non-infected negative control group and multiplying by 100 was used for anticoccidial index calculation. […]

Structure (SMILES): N#CC(c1ccc(Cl)cc1)c1c(Cl)cc(-n2ncc(=O)[nH]c2=O)cc1Cl (stereo not shown) [Diclazuril, diclazuril, reference compound]
- Minimum concentration for killing 50% protozoa (sporozoites) (ppm) (Eimeria maxima): >500 ppm
- Minimum concentration for killing 50% protozoa (sporozoites) (ppm) (Eimeria tenella [1]): >500 ppm
- Minimum concentration for killing 50% protozoa (sporozoites) (ppm) (Eimeria acervulina): 500 ppm
- inhibition at 0.5 ppm (Eimeria tenella [2]; 0.5 ppm): 0%
- inhibition at 1 ppm (Eimeria tenella [2]; 1 ppm): 6.3%
- inhibition at 0.5 ppm (Eimeria tenella [3]; 0.5 ppm): 45.9%
- inhibition at 1 ppm (Eimeria tenella [3]; 1 ppm): 52.9%
- ADG(g/d) after challenge inoculation (Eimeria tenella [4]): 61 g/day
- Oocyst index (Eimeria tenella [4]): 10
- Lesion score (Eimeria tenella [4]; appendix, scale 0-4, 8th day): 1.7
- Oocyst excretion amount/g (Eimeria tenella [4]; feces day 6-8): 1.3e+08 g⁻¹
- Lesion index (Eimeria tenella [4]; lesion score x 10): 17
- ACI (Eimeria tenella [4]; out of 200 points): 169
- Survival rate after challenge inoculation (%) (Eimeria tenella [4]; up to 8th day): 100%
- RWG(%) (Eimeria tenella [4]; vs non-infected negative control): 96%

Structure (SMILES): O=C(O)c1cc(O)c(O)c(O)c1 [Gallic acid, gallic acid]
- Minimum concentration for killing 50% protozoa (sporozoites) (ppm) (Eimeria maxima): >500 ppm
- Minimum concentration for killing 50% protozoa (sporozoites) (ppm) (Eimeria tenella [1]): >500 ppm
- Minimum concentration for killing 50% protozoa (sporozoites) (ppm) (Eimeria acervulina): >500 ppm
- inhibition at 5 ppm (Eimeria tenella [2]; 5 ppm): 76%
- inhibition at 10 ppm (Eimeria tenella [2]; 10 ppm): 90.1%
- inhibition at 5 ppm (Eimeria tenella [3]; 5 ppm): 0%
- inhibition at 10 ppm (Eimeria tenella [3]; 10 ppm): 0%
